Measurements as given in ChEMBL document CHEMBL1201862, “PubChem BioAssay data set” (2004).
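All cell lines were grown in 96-well plates and treated with compound for 48 hours. At the GI50, growth is halved.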 Calls of active or inactive are those of the source. No stated cut-off is given here; in the data, active = GI50 up to about 1.1 µM and inactive = higher.

What was measured:
Assay in all cases: DTP human tumour cell line panel, 48 h
SK-OV-3 = system: SK-OV-3
A498 = system: A498
U-251 = system: U-251
KM12 = system: KM12
XF498 = system: XF498
ACHN = system: ACHN
HL-60 = system: HL-60
SF-295 = system: SF-295
HCT-15 = system: HCT-15
HT-29 = system: HT-29
RXF 393 = system: RXF 393
SN12C = system: SN12C
SF-539 = system: SF-539
SNB-19 = system: SNB-19
OVCAR-5 = system: OVCAR-5
IGROV-1 = system: IGROV-1
HOP-18 = system: HOP-18
SR = system: SR
HCC 2998 = system: HCC 2998
SNB-75 = system: SNB-75
SNB-78 = system: SNB-78
SK-MEL-2 = system: SK-MEL-2
SK-MEL-5 = system: SK-MEL-5
COLO 205 = system: COLO 205
LOX IMVI = system: LOX IMVI
EKVX = system: EKVX
MOLT-4 = system: MOLT-4
CCRF-CEM = system: CCRF-CEM
SW-620 = system: SW-620
NCI-H23 = system: NCI-H23
KM-20L2 = system: KM-20L2
Malme-3M = system: Malme-3M
DLD-1 = system: DLD-1
DMS-273 = system: DMS-273
TK-10 = system: TK-10
CAKI-1 = system: CAKI-1
OVCAR-3 = system: OVCAR-3
M19-MEL = system: M19-MEL
NCI-H226 = system: NCI-H226
UACC-257 = system: UACC-257
M14 = system: M14
HOP-92 = system: HOP-92
HCT-116 = system: HCT-116
K562 = system: K562
SK-MEL-28 = system: SK-MEL-28
OVCAR-8 = system: OVCAR-8
HOP-62 = system: HOP-62
NCI-H522 = system: NCI-H522
SF-268 = system: SF-268
NCI-H460 = system: NCI-H460
RPMI-8226 = system: RPMI-8226
UACC-62 = system: UACC-62
DMS-114 = system: DMS-114
A549 = system: A549
UO-31 = system: UO-31
LXFL 529 = system: LXFL 529
786-0 = system: 786-0
OVCAR-4 = system: OVCAR-4
Hs-578T = system: Hs-578T
BT-549 = system: BT-549
PC-3 = system: PC-3
MDA-MB-231 = system: MDA-MB-231
MDA-MB-435 = system: MDA-MB-435
DU-145 = system: DU-145
MCF7 = system: MCF7
MDA-N = system: MDA-N
T47D = system: T47D

## NC(=O)C(=O)N/N=C1\C(=O)N(c2ccc(Cl)cc2Cl)C(=O)C1C(=O)Nc1ccc(Cl)cc1Cl (stereo not drawn)
SK-OV-3
  GI50: > 100 µM (inactive)
A498
  GI50: > 100 µM (inactive)
U-251
  GI50: > 100 µM (inactive)
KM12
  GI50: > 100 µM (inactive)
XF498
  GI50: > 100 µM (inactive)
ACHN
  GI50: > 100 µM (inactive)
HL-60
  GI50: > 100 µM (inactive)
SF-295
  GI50: > 100 µM (inactive)
HCT-15
  GI50: > 100 µM
HT-29
  GI50: > 100 µM (inactive)
RXF 393
  GI50: > 100 µM (inactive)
SN12C
  GI50: > 100 µM (inactive)
SF-539
  GI50: > 100 µM (inactive)
SNB-19
  GI50: > 100 µM (inactive)
OVCAR-5
  GI50: > 100 µM (inactive)
IGROV-1
  GI50: > 100 µM (inactive)
HOP-18
  GI50: 76.9 µM (inactive)
SR
  GI50: > 100 µM (inactive)
HCC 2998
  GI50: > 100 µM (inactive)
SNB-75
  GI50: 28.8 µM (inactive)
SNB-78
  GI50: > 100 µM (inactive)
SK-MEL-2
  GI50: > 100 µM (inactive)
SK-MEL-5
  GI50: > 100 µM (inactive)
COLO 205
  GI50: > 100 µM (inactive)
LOX IMVI
  GI50: > 100 µM (inactive)
EKVX
  GI50: > 100 µM (inactive)
MOLT-4
  GI50: > 100 µM (inactive)
CCRF-CEM
  GI50: > 100 µM (inactive)
SW-620
  GI50: > 100 µM (inactive)
NCI-H23
  GI50: > 100 µM (inactive)
KM-20L2
  GI50: > 100 µM (inactive)
Malme-3M
  GI50: > 100 µM (inactive)
DLD-1
  GI50: > 100 µM (inactive)
DMS-273
  GI50: > 100 µM (inactive)
TK-10
  GI50: > 100 µM (inactive)
CAKI-1
  GI50: > 100 µM (inactive)
OVCAR-3
  GI50: > 100 µM (inactive)
M19-MEL
  GI50: > 100 µM (inactive)
NCI-H226
  GI50: > 100 µM (inactive)
UACC-257
  GI50: > 100 µM (inactive)
M14
  GI50: > 100 µM (inactive)
HOP-92
  GI50: > 100 µM (inactive)
HCT-116
  GI50: > 100 µM (inactive)
K562
  GI50: > 100 µM (inactive)
SK-MEL-28
  GI50: > 100 µM (inactive)
OVCAR-8
  GI50: > 100 µM (inactive)
HOP-62
  GI50: > 100 µM (inactive)
NCI-H522
  GI50: > 100 µM (inactive)
SF-268
  GI50: > 100 µM (inactive)
NCI-H460
  GI50: > 100 µM (inactive)
RPMI-8226
  GI50: > 100 µM (inactive)
UACC-62
  GI50: > 100 µM (inactive)
DMS-114
  GI50: > 100 µM (inactive)
A549
  GI50: > 100 µM (inactive)
UO-31
  GI50: > 100 µM (inactive)
LXFL 529
  GI50: > 100 µM (inactive)
786-0
  GI50: > 100 µM (inactive)

## Cc1ccc(/C=C2\CNC/C(=C\c3ccc(C)cc3)C2=O)cc1
SK-OV-3
  GI50: 2.4 µM (inactive)
A498
  GI50: 1.89 µM (inactive)
U-251
  GI50: 0.341 µM (active)
KM12
  GI50: 1.05 µM (active)
XF498
  GI50: 2.59 µM (inactive)
ACHN
  GI50: 2.19 µM (inactive)
HL-60
  GI50: 0.479 µM (active)
SF-295
  GI50: 3.54 µM (inactive)
OVCAR-4
  GI50: 2.34 µM (inactive)
HCT-15
  GI50: 1.49 µM
HT-29
  GI50: 0.617 µM (active)
Hs-578T
  GI50: 1.89 µM (inactive)
SN12C
  GI50: 2.52 µM (inactive)
BT-549
  GI50: 2.24 µM (inactive)
SF-539
  GI50: 2.2 µM (inactive)
SNB-19
  GI50: 1.65 µM (inactive)
OVCAR-5
  GI50: 3.87 µM (inactive)
IGROV-1
  GI50: 1.9 µM (inactive)
HOP-18
  GI50: > 10 µM (inactive)
SR
  GI50: 0.44 µM (active)
HCC 2998
  GI50: 1.67 µM (inactive)
SNB-75
  GI50: 22.9 µM (inactive)
SNB-78
  GI50: > 100 µM (inactive)
SK-MEL-2
  GI50: 9.02 µM (inactive)
SK-MEL-5
  GI50: 2.43 µM (inactive)
COLO 205
  GI50: 2.13 µM (inactive)
LOX IMVI
  GI50: 0.615 µM (active)
EKVX
  GI50: 3.92 µM (inactive)
PC-3
  GI50: 2.62 µM (inactive)
MOLT-4
  GI50: 2.22 µM (inactive)
CCRF-CEM
  GI50: 0.689 µM (active)
SW-620
  GI50: 1.12 µM (inactive)
NCI-H23
  GI50: 1.83 µM (inactive)
KM-20L2
  GI50: 1.32 µM (inactive)
Malme-3M
  GI50: 14.4 µM (inactive)
DLD-1
  GI50: 0.34 µM (active)
MDA-MB-231
  GI50: 2.91 µM (inactive)
MDA-MB-435
  GI50: 3.03 µM (inactive)
DMS-273
  GI50: 1.24 µM (inactive)
TK-10
  GI50: 5.48 µM (inactive)
CAKI-1
  GI50: 2.46 µM (inactive)
OVCAR-3
  GI50: 2.96 µM (inactive)
M19-MEL
  GI50: 1.57 µM (inactive)
NCI-H226
  GI50: 1.84 µM (inactive)
UACC-257
  GI50: 6.46 µM (inactive)
M14
  GI50: 2.26 µM (inactive)
DU-145
  GI50: 4.48 µM (inactive)
HOP-92
  GI50: 4.54 µM (inactive)
HCT-116
  GI50: 0.313 µM (active)
K562
  GI50: 0.323 µM (active)
SK-MEL-28
  GI50: 2.04 µM (inactive)
MCF7
  GI50: 0.513 µM (active)
OVCAR-8
  GI50: 2.19 µM (inactive)
HOP-62
  GI50: 2.72 µM (inactive)
NCI-H522
  GI50: 1.87 µM (inactive)
SF-268
  GI50: 2.53 µM (inactive)
MDA-N
  GI50: 2.49 µM (inactive)
NCI-H460
  GI50: 1.48 µM (inactive)
RPMI-8226
  GI50: 0.248 µM (active)
UACC-62
  GI50: 2.04 µM (inactive)
T47D
  GI50: 2.65 µM (inactive)
DMS-114
  GI50: 1.86 µM (inactive)
A549
  GI50: 2.83 µM (inactive)
UO-31
  GI50: 1.77 µM (inactive)
LXFL 529
  GI50: 1.28 µM (inactive)
786-0
  GI50: 1.35 µM (inactive)
